# PubChem BioAssay AID1259407 (Chemical Carcinogenesis Research Information System (CCRIS), 2018)
# Calls of active or inactive are those of the source. How the calls were made is not given here.
# System: CCRIS mutagenicity, Ames/micronucleus/aberration tests
# Test: CCRIS mutagenicity studies
# [1] = Test System: AMES SALMONELLA TYPHIMURIUM, Strain/Indicator: TA97, Metabolic Activation: HAMSTER, LIVER, S-9, AROCLOR 1254 (10%), Method: PREINCUBATION
# [2] = Test System: AMES SALMONELLA TYPHIMURIUM, Strain/Indicator: TA97, Metabolic Activation: HAMSTER, LIVER, S-9, AROCLOR 1254 (30%), Method: PREINCUBATION
# [3] = Test System: AMES SALMONELLA TYPHIMURIUM, Strain/Indicator: TA97, Metabolic Activation: NONE, Method: PREINCUBATION
# [4] = Test System: AMES SALMONELLA TYPHIMURIUM, Strain/Indicator: TA97, Metabolic Activation: RAT, LIVER, S-9, AROCLOR 1254 (10%), Method: PREINCUBATION
# [5] = Test System: AMES SALMONELLA TYPHIMURIUM, Strain/Indicator: TA97, Metabolic Activation: RAT, LIVER, S-9, AROCLOR 1254 (30%), Method: PREINCUBATION
# [6] = Test System: AMES SALMONELLA TYPHIMURIUM, Strain/Indicator: TA98, Metabolic Activation: HAMSTER, LIVER, S-9, AROCLOR 1254 (10%), Method: PREINCUBATION
# [7] = Test System: AMES SALMONELLA TYPHIMURIUM, Strain/Indicator: TA98, Metabolic Activation: HAMSTER, LIVER, S-9, AROCLOR 1254 (30%), Method: PREINCUBATION
# [8] = Test System: AMES SALMONELLA TYPHIMURIUM, Strain/Indicator: TA98, Metabolic Activation: NONE, Method: PREINCUBATION
# [9] = Test System: AMES SALMONELLA TYPHIMURIUM, Strain/Indicator: TA98, Metabolic Activation: RAT, LIVER, S-9, AROCLOR 1254 (10%), Method: PREINCUBATION
# [10] = Test System: AMES SALMONELLA TYPHIMURIUM, Strain/Indicator: TA98, Metabolic Activation: RAT, LIVER, S-9, AROCLOR 1254 (30%), Method: PREINCUBATION
# [11] = Test System: AMES SALMONELLA TYPHIMURIUM, Strain/Indicator: TA100, Metabolic Activation: HAMSTER, LIVER, S-9, AROCLOR 1254 (10%), Method: PREINCUBATION
# [12] = Test System: AMES SALMONELLA TYPHIMURIUM, Strain/Indicator: TA100, Metabolic Activation: HAMSTER, LIVER, S-9, AROCLOR 1254 (30%), Method: PREINCUBATION
# [13] = Test System: AMES SALMONELLA TYPHIMURIUM, Strain/Indicator: TA100, Metabolic Activation: NONE, Method: PREINCUBATION
# [14] = Test System: AMES SALMONELLA TYPHIMURIUM, Strain/Indicator: TA100, Metabolic Activation: RAT, LIVER, S-9, AROCLOR 1254 (10%), Method: PREINCUBATION
# [15] = Test System: AMES SALMONELLA TYPHIMURIUM, Strain/Indicator: TA100, Metabolic Activation: RAT, LIVER, S-9, AROCLOR 1254 (30%), Method: PREINCUBATION
# [16] = Test System: AMES SALMONELLA TYPHIMURIUM, Strain/Indicator: TA1535, Metabolic Activation: HAMSTER, LIVER, S-9, AROCLOR 1254 (10%), Method: PREINCUBATION
# [17] = Test System: AMES SALMONELLA TYPHIMURIUM, Strain/Indicator: TA1535, Metabolic Activation: HAMSTER, LIVER, S-9, AROCLOR 1254 (30%), Method: PREINCUBATION
# [18] = Test System: AMES SALMONELLA TYPHIMURIUM, Strain/Indicator: TA1535, Metabolic Activation: NONE, Method: PREINCUBATION
# [19] = Test System: AMES SALMONELLA TYPHIMURIUM, Strain/Indicator: TA1535, Metabolic Activation: RAT, LIVER, S-9, AROCLOR 1254 (10%), Method: PREINCUBATION
# [20] = Test System: AMES SALMONELLA TYPHIMURIUM, Strain/Indicator: TA1535, Metabolic Activation: RAT, LIVER, S-9, AROCLOR 1254 (30%), Method: PREINCUBATION
# [21] = Test System: AMES SALMONELLA TYPHIMURIUM, Strain/Indicator: TA98, Metabolic Activation: NONE, Method: STANDARD PLATE
# [22] = Test System: AMES SALMONELLA TYPHIMURIUM, Strain/Indicator: TA100, Metabolic Activation: NONE, Method: STANDARD PLATE
compound,measurement,setting,value
COc1ccc(C(=O)c2ccccc2)c(O)c1,mutagenic call,[1],inactive; negative
same,mutagenic call,[2],inactive; negative
same,mutagenic call,[3],inactive; negative
same,mutagenic call,[4],inactive; negative
same,mutagenic call,[5],inactive; negative
same,mutagenic call,[6],inactive; negative
same,mutagenic call,[7],inactive; negative
same,mutagenic call,[8],inactive; negative
same,mutagenic call,[9],inactive; negative
same,mutagenic call,[10],inactive; negative
same,mutagenic call,[11],inactive; negative
same,mutagenic call,[12],inactive; negative
same,mutagenic call,[13],inactive; negative
same,mutagenic call,[14],inactive; negative
same,mutagenic call,[15],inactive; negative
same,mutagenic call,[16],inactive; negative
same,mutagenic call,[17],inactive; negative
same,mutagenic call,[18],inactive; negative
same,mutagenic call,[19],inactive; negative
same,mutagenic call,[20],inactive; negative
same,mutagenic call,"Test System: AMES SALMONELLA TYPHIMURIUM, Strain/Indicator: TA1537, Metabolic Activation: HAMSTER, LIVER, S-9, AROCLOR 1254 (10%), Method: PREINCUBATION",inactive; negative
same,mutagenic call,"Test System: AMES SALMONELLA TYPHIMURIUM, Strain/Indicator: TA1537, Metabolic Activation: NONE, Method: PREINCUBATION",inactive; negative
same,mutagenic call,"Test System: AMES SALMONELLA TYPHIMURIUM, Strain/Indicator: TA1537, Metabolic Activation: RAT, LIVER, S-9, AROCLOR 1254 (10%), Method: PREINCUBATION",inactive; negative
same,mutagenic call,"Test System: MOUSE LYMPHOMA, Strain/Indicator: L5178Y (TK+/TK-), Metabolic Activation: NONE, Method: SUSPENSION/PLATE",inactive; positive. reevaluation of results: negative
same,mutagenic call,"Test System: MOUSE LYMPHOMA, Strain/Indicator: L5178Y (TK+/TK-), Metabolic Activation: RAT, LIVER, S-9, AROCLOR 1254, Method: SUSPENSION/PLATE",active; positive. reevaluation of results: equivocal
Cc1ccc(C#N)cc1,mutagenic call,[1],inactive; negative
same,mutagenic call,[2],inactive; negative
same,mutagenic call,[3],inactive; negative
same,mutagenic call,[4],inactive; negative
same,mutagenic call,[5],inactive; negative
same,mutagenic call,[6],inactive; negative
same,mutagenic call,[7],inactive; negative
same,mutagenic call,[8],inactive; negative
same,mutagenic call,[9],inactive; negative
same,mutagenic call,[10],inactive; negative
same,mutagenic call,[11],inactive; negative
same,mutagenic call,[12],inactive; negative
same,mutagenic call,[13],inactive; negative
same,mutagenic call,[14],inactive; negative
same,mutagenic call,[15],inactive; negative
same,mutagenic call,[16],inactive; negative
same,mutagenic call,[17],inactive; negative
same,mutagenic call,[18],inactive; negative
same,mutagenic call,[19],inactive; negative
same,mutagenic call,[20],inactive; negative
O=Nc1ccc(Oc2ccccc2)cc1,mutagenic call,[21],active; positive
same,mutagenic call,"Test System: AMES SALMONELLA TYPHIMURIUM, Strain/Indicator: TA100, Metabolic Activation: GUINEA PIG, LIVER, S-9, KANECLOR 500, Method: STANDARD PLATE",active; positive
OCCNc1ccc(N=Nc2ccc(NCCO)cc2)cc1,mutagenic call,"Test System: AMES SALMONELLA TYPHIMURIUM, Strain/Indicator: TA98, Metabolic Activation: HAMSTER, LIVER, S-9, AROCLOR 1254, Method: STANDARD PLATE",active; positive
same,mutagenic call,[21],inactive; negative
same,mutagenic call,"Test System: AMES SALMONELLA TYPHIMURIUM, Strain/Indicator: TA98, Metabolic Activation: RAT, LIVER, S-9, AROCLOR 1254, Method: PREINCUBATION",active; positive
same,mutagenic call,"Test System: AMES SALMONELLA TYPHIMURIUM, Strain/Indicator: TA98, Metabolic Activation: RAT, LIVER, S-9, AROCLOR 1254, Method: STANDARD PLATE",active; positive
same,mutagenic call,[22],inactive; negative
same,mutagenic call,"Test System: AMES SALMONELLA TYPHIMURIUM, Strain/Indicator: TA100, Metabolic Activation: RAT, LIVER, S-9, AROCLOR 1254, Method: STANDARD PLATE",inactive; negative
same,mutagenic call,"Test System: AMES SALMONELLA TYPHIMURIUM, Strain/Indicator: TA1535, Metabolic Activation: NONE, Method: STANDARD PLATE",inactive; negative
same,mutagenic call,"Test System: AMES SALMONELLA TYPHIMURIUM, Strain/Indicator: TA1535, Metabolic Activation: RAT, LIVER, S-9, AROCLOR 1254, Method: STANDARD PLATE",inactive; negative
same,mutagenic call,"Test System: AMES SALMONELLA TYPHIMURIUM, Strain/Indicator: TA1537, Metabolic Activation: NONE, Method: STANDARD PLATE",inactive; negative
same,mutagenic call,"Test System: AMES SALMONELLA TYPHIMURIUM, Strain/Indicator: TA1537, Metabolic Activation: RAT, LIVER, S-9, AROCLOR 1254, Method: STANDARD PLATE",inactive; negative
same,mutagenic call,"Test System: AMES SALMONELLA TYPHIMURIUM, Strain/Indicator: TA1538, Metabolic Activation: NONE, Method: STANDARD PLATE",inactive; negative
same,mutagenic call,"Test System: AMES SALMONELLA TYPHIMURIUM, Strain/Indicator: TA1538, Metabolic Activation: RAT, LIVER, S-9, AROCLOR 1254, Method: STANDARD PLATE",active; positive
C1=CC2=C3OC3c3cc4c(cc3C2C=C1)c1c(c2ccccc24)O1 (stereo not drawn),mutagenic call,[22],active; positive
CCc1ccc([N+](=O)[O-])cc1,mutagenic call,[8],inactive; negative
same,mutagenic call,"Test System: AMES SALMONELLA TYPHIMURIUM, Strain/Indicator: TA98, Metabolic Activation: RAT, LIVER, S-9, KANECHLOR 500, Method: PREINCUBATION",inactive; negative
same,mutagenic call,[13],inactive; negative
same,mutagenic call,"Test System: AMES SALMONELLA TYPHIMURIUM, Strain/Indicator: TA100, Metabolic Activation: RAT, LIVER, S-9, KANECHLOR 500, Method: PREINCUBATION",inactive; negative
CCN(CC)CCNC(=O)c1ccc(N)cc1,mutagenic call,"Test System: CHINESE HAMSTER V-79, Strain/Indicator: V-79 (HGPRT)/6-THIOGUANINE, Metabolic Activation: NONE",inactive; negative
same,mutagenic call,"Test System: UDS HUMAN HEPATOCYTES, Strain/Indicator: THY INCORP, Metabolic Activation: NONE, Method: AUTORADIOGRAPHY",inactive; negative
same,mutagenic call,"Test System: UDS RAT HEPATOCYTES, Strain/Indicator: THY INCORP, Metabolic Activation: NONE, Method: AUTORADIOGRAPHY",inactive; negative
COc1cccc2c1cc1c3c(cc4c(c32)OCO4)C(=O)N1[C@H]1O[C@H](CO)[C@@H](O)[C@H](O)[C@H]1O,mutagenic call,"Test System: AMES SALMONELLA TYPHIMURIUM, Strain/Indicator: TM677/8-AZAGUANINE, Metabolic Activation: NONE, Method: SUSPENSION/PLATE",inactive; negative
